Data: ChEMBL document CHEMBL1137452, “Synthesis of disulfide esters of dialkylaminocarbothioic acid as potent, non-detergent spermicidal agents” (Bioorg Med Chem, 2007)
Converted amounts (≈) assume the structure as drawn. The source made the active and inactive calls. The rule behind the calls is not given here.

Tests used:
Homo sapiens [1] = species on record: Homo sapiens; test: Spermicidal activity against human spermatozoa at 1.0% w/v; assay type: functional
Candida albicans [2] = test: Antifungal activity against Candida albicans MTCC 1346 after 48 hrs by broth micro dilution technique; assay type: functional, organism-based; conditions: MTCC 1346, 48 h
Candida albicans [3] = test: Antifungal activity against Candida albicans MTCC 183 after 48 hrs by broth micro dilution technique; assay type: functional, organism-based; conditions: MTCC 183, 48 h
Candida albicans [4] = test: Antifungal activity against Candida albicans ATCC 66027 after 48 hrs by broth micro dilution technique; assay type: functional, organism-based; conditions: ATCC 66027, 48 h
Candida albicans [5] = test: Antifungal activity against Candida albicans after 48 hrs by broth micro dilution technique; assay type: functional, organism-based
Candida albicans [6] = test: Antifungal activity against Candida albicans ATCC 10231 after 48 hrs by broth micro dilution technique; assay type: functional, organism-based; conditions: ATCC 10231, 48 h
Candida parapsilosis = test: Antifungal activity against Candida parapsilosis ATCC 22019 after 48 hrs by broth micro dilution technique; assay type: functional, organism-based; conditions: Lodderomyces parapsilosis, ATCC 22019, 48 h
Pichia kudriavzevii = test: Antifungal activity against Candida krusei ATCC 6258 after 48 hrs by broth micro dilution technique; assay type: functional, organism-based; conditions: ATCC 6258, 48 h
Candida albicans [7] = test: Antifungal activity against Candida albicans ATCC 60193 after 48 hrs by broth micro dilution technique; assay type: functional, organism-based; conditions: ATCC 60193, 48 h
Homo sapiens [8] = species on record: Homo sapiens; test: Spermicidal activity against human spermatozoa; assay type: functional
Candida albicans [9] = test: Antifungal activity against Candida albicans ATCC 10453 after 48 hrs by broth micro dilution technique; assay type: functional, organism-based; conditions: ATCC 10453, 48 h

Row | Compound | Activity (Homo sapiens [1]) | IC50 (Candida albicans [2]) [µg/mL] | MIC (Candida albicans [2]) [µg/mL] | IC50 (Candida albicans [3]) [µg/mL] | MIC (Candida albicans [3]) [µg/mL] | IC50 (Candida albicans [4]) [µg/mL] | MIC (Candida albicans [4]) [µg/mL] | IC50 (Candida albicans [5]) [µg/mL] | MIC (Candida albicans [5]) [µg/mL] | IC50 (Candida albicans [6]) [µg/mL] | MIC (Candida albicans [6]) [µg/mL] | IC50 (Candida parapsilosis) [µg/mL] | MIC (Candida parapsilosis) [µg/mL] | IC50 (Pichia kudriavzevii) [µg/mL] | MIC (Pichia kudriavzevii) [µg/mL] | IC50 (Candida albicans [7]) [µg/mL] | MIC (Candida albicans [7]) [µg/mL] | MEC (Homo sapiens [8]) [%w/v] | IC50 (Candida albicans [9]) [µg/mL] | MIC (Candida albicans [9]) [µg/mL]
1 | CCN(CC)C(=O)SCC(CN1CCOCC1)SSC(CSC(=O)N(CC)CC)CN1CCOCC1 (configuration not stated) | inactive |  |  |  |  |  |  |  |  |  |  |  |  |  |  |  |  |  |  | 
2 | O=C(SCC(CN1CCCCC1)SSC(CSC(=O)N1CCCC1)CN1CCCCC1)N1CCCC1 (racemic) |  | > 50 | > 50 | 42 (≈ 73.1 µM) | > 50 | > 50 | > 50 | > 50 | > 50 | > 50 | > 50 | 48 (≈ 83.5 µM) | 50 (≈ 87 µM) | 49 (≈ 85.2 µM) | 50 (≈ 87 µM) | > 50 | > 50 | 0.05 | > 50 | > 50
3 | CN1CCN(CC(CSC(=O)N2CCCCC2)SSC(CSC(=O)N2CCCCC2)CN2CCN(C)CC2)CC1 (racemic) |  | > 50 | 50 (≈ 79 µM) | > 50 | 50 (≈ 79 µM) | 40 (≈ 63.2 µM) | > 50 | 47 (≈ 74.2 µM) | 50 (≈ 79 µM) | > 50 | 50 (≈ 79 µM) | 40 (≈ 63.2 µM) | 50 (≈ 79 µM) | 35 (≈ 55.3 µM) | 50 (≈ 79 µM) | 43 (≈ 67.9 µM) | > 50 | 0.05 | 46 (≈ 72.7 µM) | > 50
4 | O=C(SCC(CN1CCCCC1)SSC(CSC(=O)N1CCCCC1)CN1CCCCC1)N1CCCCC1 (racemic) |  | > 50 | > 50 | > 50 | > 50 | > 50 | > 50 | > 50 | > 50 | > 50 | > 50 | > 50 | > 50 | > 50 | > 50 | > 50 | > 50 | 0.05 | > 50 | > 50
5 | O=C(SCC(CN1CCCC1)SSC(CSC(=O)N1CCCC1)CN1CCCC1)N1CCCC1 (racemic) |  | > 50 | > 50 | 29 (≈ 53 µM) | 50 (≈ 91.4 µM) | 42 (≈ 76.8 µM) | > 50 | 43 (≈ 78.6 µM) | > 50 | > 50 | > 50 | 31 (≈ 56.7 µM) | 50 (≈ 91.4 µM) | 33 (≈ 60.3 µM) | 50 (≈ 91.4 µM) | > 50 | > 50 | 0.002 | > 50 | > 50
6 | O=C(SCC(CN1CCCC1)SSC(CSC(=O)N1CCCCC1)CN1CCCC1)N1CCCCC1 (racemic) |  | 48 (≈ 83.5 µM) | 50 (≈ 87 µM) | 32 (≈ 55.7 µM) | 50 (≈ 87 µM) | 43 (≈ 74.8 µM) | > 50 | 47 (≈ 81.7 µM) | > 50 | 48 (≈ 83.5 µM) | 50 (≈ 87 µM) | 48 (≈ 83.5 µM) | 50 (≈ 87 µM) | 30 (≈ 52.2 µM) | 50 (≈ 87 µM) | 41 (≈ 71.3 µM) | > 50 | 0.002 | > 50 | > 50
7 | O=C(SCC(CN1C=CC=CC=C1)SSC(CSC(=O)N1CCCC1)CN1C=CC=CC=C1)N1CCCC1 (racemic) |  | 50 (≈ 84.6 µM) | 50 (≈ 84.6 µM) | 26 (≈ 44 µM) | 50 (≈ 84.6 µM) | > 50 | > 50 | 50 (≈ 84.6 µM) | > 50 | > 50 | > 50 | 42 (≈ 71.1 µM) | 50 (≈ 84.6 µM) | 32 (≈ 54.2 µM) | 50 (≈ 84.6 µM) | 42 (≈ 71.1 µM) | 50 (≈ 84.6 µM) | 0.05 | > 50 | > 50
8 | O=C(SCC(CN1C=CC=CC=C1)SSC(CSC(=O)N1CCOCC1)CN1C=CC=CC=C1)N1CCOCC1 (racemic) |  | 35 (≈ 56.2 µM) | 50 (≈ 80.3 µM) | 25 (≈ 40.1 µM) | 50 (≈ 80.3 µM) | > 50 | > 50 | > 50 | > 50 | > 50 | > 50 | 39 (≈ 62.6 µM) | 50 (≈ 80.3 µM) | 32 (≈ 51.4 µM) | 50 (≈ 80.3 µM) | 42 (≈ 67.4 µM) | 50 (≈ 80.3 µM) | 0.05 | > 50 | > 50
9 | CCN(C)C(=O)SCC(CN1CCCCC1)SSC(CSC(=O)N(C)CC)CN1CCCCC1 (racemic) | inactive |  |  |  |  |  |  |  |  |  |  |  |  |  |  |  |  |  |  | 
10 | CCN(C)C(=O)SCC(CN1CCN(C)CC1)SSC(CSC(=O)N(C)CC)CN1CCN(C)CC1 (racemic) | inactive |  |  |  |  |  |  |  |  |  |  |  |  |  |  |  |  |  |  | 
11 | CN1CCN(CC(CSC(=O)N2CCCC2)SSC(CSC(=O)N2CCCC2)CN2CCN(C)CC2)CC1 (racemic) |  |  |  |  |  |  |  |  |  |  |  |  |  |  |  |  |  | 1 |  | 
12 | O=C(SCC(CN1CCCC1)SSC(CSC(=O)N1CCOCC1)CN1CCCC1)N1CCOCC1 (racemic) |  |  |  |  |  |  |  |  |  |  |  |  |  |  |  |  |  | 0.1 |  | 
13 | O=C(SCC(CN1CCCCC1)SSC(CSC(=O)N1CCOCC1)CN1CCCCC1)N1CCOCC1 (racemic) |  |  |  |  |  |  |  |  |  |  |  |  |  |  |  |  |  | 0.5 |  | 
14 | O=C(SCC(CN1CCOCC1)SSC(CSC(=O)N1CCCC1)CN1CCOCC1)N1CCCC1 (racemic) | inactive |  |  |  |  |  |  |  |  |  |  |  |  |  |  |  |  |  |  | 
15 | O=C(SCC(CN1CCOCC1)SSC(CSC(=O)N1CCCCC1)CN1CCOCC1)N1CCCCC1 (racemic) |  |  |  |  |  |  |  |  |  |  |  |  |  |  |  |  |  | 0.1 |  | 
16 | O=C(SCC(CN1CCOCC1)SSC(CSC(=O)N1CCOCC1)CN1CCOCC1)N1CCOCC1 (racemic) | inactive |  |  |  |  |  |  |  |  |  |  |  |  |  |  |  |  |  |  | 
17 | CCN(CC)C(=O)SCC(CN1CCCCC1)SSC(CSC(=O)N(CC)CC)CN1CCCCC1 (racemic; 26) | inactive |  |  |  |  |  |  |  |  |  |  |  |  |  |  |  |  |  |  | 
18 | CCN(CC)C(=O)SCC(CN1CCCCC1)SSC(CSC(=O)N(CC)CC)CN1CCCCC1 (racemic; 29) | inactive |  |  |  |  |  |  |  |  |  |  |  |  |  |  |  |  |  |  | 
19 | OC(Cn1cncn1)(Cn1cncn1)c1ccc(F)cc1F [FLUCONAZOLE] |  | 0.58 (≈ 1.89 µM) | 2 (≈ 6.53 µM) | 0.26 (≈ 0.849 µM) | 0.5 (≈ 1.63 µM) | 0.18 (≈ 0.588 µM) | 0.25 (≈ 0.816 µM) | 0.13 (≈ 0.424 µM) | 0.5 (≈ 1.63 µM) | 0.35 (≈ 1.14 µM) | 1 (≈ 3.27 µM) | 0.21 (≈ 0.686 µM) | 1 (≈ 3.27 µM) | 1.38 (≈ 4.51 µM) | 4 (≈ 13.1 µM) | 0.1 (≈ 0.327 µM) | 0.25 (≈ 0.816 µM) | 0.1 | 0.63 (≈ 2.06 µM) | 1 (≈ 3.27 µM)
20 | CCCCCCCCCc1ccc(OCCOCCOCCOCCOCCOCCOCCOCCOCCO)cc1 [NONOXYNOL 9] |  | > 50 | > 50 | 41 (≈ 66.5 µM) | > 50 | > 50 | > 50 | 46 (≈ 74.6 µM) | > 50 | > 50 | > 50 | 47 (≈ 76.2 µM) | 50 (≈ 81.1 µM) | 48 (≈ 77.8 µM) | 50 (≈ 81.1 µM) | > 50 | > 50 | 0.05 | > 50 | > 50
